Here are results for 74 compounds from PubChem BioAssay AID1996.

In brackets after ≈: the same amount, converted by molar mass.

The conditions of this data set: buffer; pH 7.4; 200.0 µM.
With `Fc1ccc(NC(=S)N2CCOCC2)c(F)c1`, the solubility (kinetic) (in general, solubility judged after dilution from a stock solution rather than from solid) is > 38.7 µg/mL.
On to `O=C(NCCCN1CCCC1=O)c1cc2ccccc2o1`, for which the solubility (kinetic) was > 42.9 µg/mL.
With `Cc1ccc(CSCC(=O)NCc2ccc3c(c2)OCO3)cc1`, the kinetic solubility is 11.5 µg/mL (≈ 34.9 µM).
Consider `CCOc1ccc(C(=O)NCC2CCN(CC3CCCCC3)CC2)cc1`, for which the solubility (kinetic) is > 53.8 µg/mL.
Turning to `CC(CN1C(C)CCCC1C)OC(=O)c1ccccc1F.Cl` (centres undefined), the kinetic solubility is > 49.5 µg/mL.
Consider `O=[N+]([O-])c1cccc2c(N3CCCC3)ccnc12`, for which the kinetic solubility is > 36.5 µg/mL.
Consider `O=C(NC(=S)N1CCCC(O)C1)c1ccco1` (centres undefined), for which the kinetic solubility is > 38.1 µg/mL.
With `O=C(C#Cc1ccccc1)Nc1ccc(F)cc1`, the solubility (kinetic) was found to be 2.4 µg/mL (≈ 10 µM).
With `CCOC(=O)N1CCC(NC(=O)Cc2ccccc2)CC1` the figure was > 43.6 µg/mL.
In the case of `O=C1c2ccccc2C(=O)N1c1cc([N+](=O)[O-])ccn1`, the solubility (kinetic) is 29.2 µg/mL (≈ 108 µM).
On to `Nc1cc(N)cc(C(=O)Nc2ccc3c(c2)C(=O)NC3=O)c1`, for which the solubility (kinetic) is > 44.4 µg/mL.
Turning to `CN(C)C(=S)SCCn1c(N)nc(N(C)C)nc1=O`, the solubility (kinetic) was > 45.4 µg/mL.
As to `O=C(Nc1ccc(S(=O)(=O)N2CCOCC2)cc1)C1CC1`, the solubility (kinetic) was > 46.6 µg/mL.
As for `Cc1ccc(C)c(-n2ccnc2SCC(N)=O)c1`, the figure is > 39.2 µg/mL; as for `N#CCCN1CCN(S(=O)(=O)c2ccc3c(c2)CCC3)CC1`, > 47.9 µg/mL.
`O=S(=O)(N=C(NS(=O)(=O)c1ccc(Cl)cc1)c1ccccc1)c1ccc(Cl)cc1`: the kinetic solubility was > 70.4 µg/mL.
For `CCC(C)NS(=O)(=O)c1ccc(NC(=O)c2cccs2)cc1` (centres undefined), the solubility (kinetic) stood at 2.6 µg/mL (≈ 7.68 µM).
In turn, `COc1cc(OC)cc(C(=O)Nc2ccc3c(c2)OCCO3)c1` returned a solubility (kinetic) of 44.8 µg/mL (≈ 142 µM). This solubility kinetic is about 17-fold higher than that of the compound before.
For `Cn1c(=O)oc2cc(S(=O)(=O)Nc3ccc(Cl)cc3)ccc21`, the solubility (kinetic) was 4.1 µg/mL (≈ 12.1 µM).
On to `O=[N+]([O-])c1ccccc1/C=C/CN1CCCCC1CO` (centres undefined), for which the solubility (kinetic) stood at 34.3 µg/mL (≈ 124 µM).
Compound `Cc1nc(NC(=O)/C=C/c2ccccc2)sc1C(=O)NCCO` registered a kinetic solubility of 12.9 µg/mL (≈ 38.9 µM).
With `O=c1[nH]c2c(Br)cnc([N+](=O)[O-])c2[nH]1` the figure was > 38.9 µg/mL.
For `COc1ccc2c(c1)c(C(C)=O)c(C)n2CCc1ccccc1`, the solubility (kinetic) was < 0.7 µg/mL.
As for `O=C(Cn1cccc1C(=O)c1ccccc1)NCc1cccc(Cl)c1`, the kinetic solubility is < 0.4 µg/mL.
For `Cc1ccc2[nH]c(=O)cc(C(=O)OCC(=O)c3ccc(F)cc3)c2c1`, the kinetic solubility came to 1.5 µg/mL (≈ 4.42 µM).
With `COCC(C)NC(=O)C(C)N1c2cccc3cccc(c23)S1(=O)=O` (centres undefined), the solubility (kinetic) was 50.9 µg/mL (≈ 146 µM).
With `CN(c1ccccc1)S(=O)(=O)c1ccc2[nH]c(=O)oc2c1`, the solubility (kinetic) was > 45.6 µg/mL.
On to `COc1ccccc1NC(=O)c1ccc2c(c1)CCN2S(C)(=O)=O`, for which the kinetic solubility was > 52 µg/mL.
In turn, `O=C(/C=C/c1ccccc1[N+](=O)[O-])N1CCc2ccccc2C1` yielded a kinetic solubility of 20.3 µg/mL (≈ 65.8 µM).
With `Cc1ccc(NC(=O)CN(C)Cc2c(O)ccc3ccccc23)cc1` the figure was 23.7 µg/mL (≈ 70.9 µM); with `Cc1cccc(Nc2c([N+](=O)[O-])ccc3nonc23)c1`, < 0.1 µg/mL; with `Cc1cccc(Cc2cnc(NC(=O)C3=NCCN3)s2)c1`, 7 µg/mL (≈ 23.3 µM).
With `CC(C)(C)c1cc(C(=O)N2CCc3ccccc3C2)ccn1` the figure was > 44.2 µg/mL; with `COc1cccc(N2C(=O)/C(=C/c3ccc(C)o3)C(=O)NC2=S)c1`, > 51.4 µg/mL.
As to `CNC(=O)COc1ccc(Cl)c2cccnc12`, the kinetic solubility is > 37.6 µg/mL.
With `CN(C)CCCNc1nc(N)c([N+](=O)[O-])c(NCCO)n1` the figure was 39 µg/mL (≈ 130 µM); with `O=C(c1cc(S(=O)(=O)N2CCOCC2)ccc1Cl)N1CCCCC1CO` (centres undefined), > 60.4 µg/mL; with `S=C(NCc1cccs1)Nc1cc(Cl)cc(Cl)c1`, 0.7 µg/mL (≈ 2.21 µM).
Consider `Cc1ccsc1CN(C)CC(=O)NCC(=O)Nc1ccc(F)c(F)c1F`, for which the solubility (kinetic) was 10.8 µg/mL (≈ 28 µM).
`CC(C)COP(=O)(c1ccc(N(C)C)cc1)C(O)c1cccnc1` (centres undefined) came in with a solubility (kinetic) of 49.6 µg/mL (≈ 142 µM).
As to `CNC(=O)CN1C(=O)NC2(CCc3ccccc3C2)C1=O` (centres undefined), the solubility (kinetic) was > 43.1 µg/mL.
Take `CC(C)c1cc(=O)n2c(nc3ccccc32)[nH]1`: the solubility (kinetic) was > 34.1 µg/mL.
Take `Cc1ccc(Nc2c([N+](=O)[O-])c(=O)oc3ccccc23)cc1`: the kinetic solubility was 5.8 µg/mL (≈ 19.6 µM).
As to `Cc1c(C)c(C)c(CN2CCCC2)c(C)c1C`, the kinetic solubility is 29.4 µg/mL (≈ 127 µM).
As for `O=C(Nc1cc(S(=O)(=O)N2CCOCC2)ccc1Cl)c1ccncc1`, the figure is > 57.3 µg/mL; as for `O=C(NC1CCCCC1)c1cccc(OCc2ccccc2)c1`, 0.8 µg/mL (≈ 2.59 µM).
Turning to `CC(Sc1nnc(-c2ccccc2F)n1C1CC1)C(N)=O` (centres undefined), the solubility (kinetic) was > 46 µg/mL.
As to `Cn1c(N)c(C(=O)COC(=O)C2=NNC(=O)CC2)c(=O)n(C)c1=O`, the kinetic solubility was > 50.6 µg/mL.
The compound `COC(=O)[C@H](c1ccccc1Cl)N1CCc2sccc2C1` gave a solubility (kinetic) of 15.1 µg/mL (≈ 46.9 µM).
Compound `Cc1noc(C)c1C(=O)OC(C)C(=O)NC(C)c1ccc(Cl)cc1Cl` (centres undefined) had a solubility (kinetic) of 10.6 µg/mL (≈ 27.5 µM).
As to `CC(=O)c1c(O)c2ccccc2n(Cc2ccccc2)c1=O`, the solubility (kinetic) was 11.8 µg/mL (≈ 40.2 µM). The solubility kinetic values of the last two compounds are within 1.5-fold of each other.
In the case of `COc1cc(Oc2nc(C(F)(F)F)nc3ccccc23)ccc1C=O`, the kinetic solubility was < 0.4 µg/mL.
In the case of `Nc1cc(S(=O)(=O)N2CCCCC2)ccc1N1CCOCC1`, the kinetic solubility was 38.7 µg/mL (≈ 119 µM).
For `CC1CC(C)CN(C(=O)COC(=O)/C=C/c2ccco2)C1` (centres undefined), the solubility (kinetic) is > 43.7 µg/mL.
On to `COc1ccccc1C(=O)NC(=O)COC(=O)C1CC1`, for which the solubility (kinetic) is > 41.6 µg/mL.
Compound `COc1cccc(NC(=O)CN2CCSc3ccccc32)c1` had a solubility (kinetic) of 25.5 µg/mL (≈ 81.1 µM).
In turn, `COC(=O)c1ccc(COc2ccc(C)cc2[N+](=O)[O-])o1` yielded a kinetic solubility of 3.3 µg/mL (≈ 11.3 µM).
As for `COc1cc2cc(C(=O)NCCc3ccccc3)[nH]c2cc1OC`, the figure is 1 µg/mL (≈ 3.08 µM); as for `CCn1c(=O)n(CC)c2cc([N+](=O)[O-])c(N3CCNCC3)cc21`, > 47.9 µg/mL; as for `CN1CCN(c2nc3ccccn3c(=O)c2C=O)CC1.Cl`, 45 µg/mL.
Regarding `O=C(COC(=O)/C=C/c1ccc(OC(F)F)cc1)Nc1cccc(S(=O)(=O)N2CCOCC2)c1`, the kinetic solubility was determined as 7.3 µg/mL (≈ 14.7 µM).
As to `Cc1cccc(N(C)S(=O)(=O)c2c(C)noc2C)c1`, the kinetic solubility worked out at 37.1 µg/mL (≈ 132 µM).
Consider `O=C(NCc1ccc(F)cc1)C1CC(=O)N(Cc2ccco2)C1` (centres undefined), for which the kinetic solubility was > 47.4 µg/mL.
As for `O=C(COC(=O)c1cccnc1Cl)c1ccc(F)cc1`, the figure is 42.7 µg/mL (≈ 145 µM); as for `CNC(=O)c1[nH]cnc1C(=O)Nc1ccccn1`, > 36.8 µg/mL; as for `NC(=O)COC(=O)C1c2ccccc2Oc2ccccc21`, 41.9 µg/mL (≈ 148 µM).
`COc1ccc(CCNC(=O)c2ccc3c(c2)OCO3)cc1` registered a solubility (kinetic) of 2.5 µg/mL (≈ 8.35 µM).
For `N#CC(C(=S)Nc1ccccc1)c1nc2ccccc2[nH]1` (centres undefined), the kinetic solubility was 0.9 µg/mL (≈ 3.08 µM). This solubility kinetic lies about 2.8-fold lower than the previous one.
In the case of `S=C(c1ccccc1)N1CCCC1`, the solubility (kinetic) was > 28.7 µg/mL.
As to `S=C(NCc1ccco1)Nc1ccccc1Cl`, the kinetic solubility was > 40 µg/mL.
With `Cc1nnc(SCC(=O)N(C)c2ccccc2)n1-n1cccc1`, the solubility (kinetic) is > 49.1 µg/mL.
`CCOC(=O)Cc1csc(NC(=O)Nc2ccc(F)cc2)n1` had a kinetic solubility of 4.4 µg/mL (≈ 13.6 µM).
In the case of `Cc1ccc2nc(CCl)[n+]([O-])c(-c3ccccc3)c2c1`, the kinetic solubility amounted to 27.8 µg/mL (≈ 97.6 µM).
The compound `O=C(COC(=O)/C=C/c1cccs1)NC1CCCCC1` came in with a kinetic solubility of 9.4 µg/mL (≈ 32 µM).
